Experimental data taken from patent US8901317B2, “Tryptamine derivatives, their preparation and their use in gastropathy” (Council of Scientific & Industrial Research, priority 2010, dated 2014).

System: indomethacin-induced gastric mucosal injury
Experiment: Healing effect on indomethacin-induced gastric damage
Assay type: in vivo, Sprague-Dwaley rats
Settings: 50 mg kg^−1 i.p. 4 hrs after indomethacin 48 mg kg^−1
Description: Gastric mucosal injury was first induced with indomethacin treatment at a dose of 48 mg kg^−1. After 4 hrs of the induction of mucosal injury, some of the animals were divided into two different groups (n=6), i.e., auto healing and SEGA-induced healing. This time point was referred as ‘0’ hr of healing. At this point of time, in the SEGA-induced healing group, SEGA was administered (i.p) at the dose of 50 mg kg^−1 (this dose was selected from the dose-response curve). The animals, which were not treated with SEGA and received only indomethacin, served as the auto healing group. Starting from 0 hr, the stomach was dissected out from all groups at the intervals of 2 hrs, 4 hrs and 8 hrs respectively for measuring ulcer index as described (Maity, P.; et al. J. Biol. Chem. 283:14391-14401; 2008) and histological studies.

SMILES: O=C(NCCc1c[nH]c2ccc(O)cc12)c1cc(O)c(O)c(O)c1 [Compound 3a, 3,4,5-trihydroxy-N-(2-(5-hydroxy-1H-indol-3-yl)ethyl)benzamide]
- healing of already damaged gastric mucosa (ulcer index): accelerates the healing process
